Measurements taken from patent US7795228B2, “Spiroheterocyclic glycosides and methods of use” (Theracos, Inc., priority 2006, dated 2010).

Tests used:
human SGLT2 = target: T1, human SGLT2 (Homo sapiens, UniProt P31639); test: Methyl-α-D-[U-14C]glucopyranoside uptake assay, cells stably expressing human SGLT2; type: cell-based; conditions: HEK293.ETN cells expressing human SGLT2, 1.5 h incubation
T1 construct: A full-length cDNA clone expressing human SGLT2 (GenScript Corporation)
T1 sequence (P31639 1-672): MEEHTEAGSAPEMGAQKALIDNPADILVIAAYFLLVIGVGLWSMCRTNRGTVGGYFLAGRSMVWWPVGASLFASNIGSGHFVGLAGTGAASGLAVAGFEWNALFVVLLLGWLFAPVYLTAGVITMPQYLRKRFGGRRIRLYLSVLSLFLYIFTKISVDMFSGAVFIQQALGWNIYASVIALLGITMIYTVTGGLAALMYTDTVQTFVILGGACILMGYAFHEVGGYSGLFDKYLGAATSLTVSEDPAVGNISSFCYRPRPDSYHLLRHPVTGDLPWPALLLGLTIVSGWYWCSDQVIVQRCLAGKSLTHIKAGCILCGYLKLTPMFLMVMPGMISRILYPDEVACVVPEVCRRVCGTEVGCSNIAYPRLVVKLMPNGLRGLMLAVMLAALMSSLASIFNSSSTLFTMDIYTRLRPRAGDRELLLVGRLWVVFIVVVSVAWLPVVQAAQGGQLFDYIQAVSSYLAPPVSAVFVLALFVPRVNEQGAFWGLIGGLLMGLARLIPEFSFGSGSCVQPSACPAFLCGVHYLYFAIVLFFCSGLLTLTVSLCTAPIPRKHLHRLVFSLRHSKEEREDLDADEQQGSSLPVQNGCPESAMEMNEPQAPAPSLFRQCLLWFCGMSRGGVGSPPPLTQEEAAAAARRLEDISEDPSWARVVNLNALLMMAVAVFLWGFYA
Source text: A full-length cDNA clone expressing human SGLT2 (GenScript Corporation) was subcloned into Hind III and Not I sites of pEAK15 expression vector. Clones harboring the cDNA inserts were identified by restriction analysis.
Plasmid containing human SGLT2 was linearized with Nsi I and purified by agarose gel electrophoresis. Using Lipofectamine 2000 Transfection Reagent (Invitrogen Corporation), DNA was transfected into HEK293.ETN cells and cultured in Dulbecco's Modified Eagle Medium (DMEM) containing 10% fetal bovine serum (FBS) at 37° C. under 5% CO2 for 24 h. Transfectants were selected in the same growth medium supplemented with puromycin (Invitrogen Corporation) for two weeks. Puromycin-resistant cells were recovered and seeded on a fresh 96-well plate (single cell per well) and cultured in the presence of puromycin until cells became confluent. Puromycin-resistant clones were evaluated for SGLT2 activity in the methyl-α-D-[U-^14C]glucopyranoside uptake assay described below.
(§1) Cells expressing SGLT1 or SGLT2 were seeded on 96-well ScintiPlate scintillating plates (PerkinElmer, Inc.) in DMEM containing 10% FBS (1×10^5 cells per well in 100 μl medium) incubated at 37° C. under 5% CO2 for 48 h prior to the assay. Cells were washed twice with 150 μl of either sodium buffer (137 mM NaCl, 5.4 mM KCl, 2.8 mM CaCl2, 1.2 mM MgCl2, 10 mM tris(hydroxymethyl)aminomethane/N-2-hydroxyethylpiperazine-N′-ethanesulfonic acid [Tris/Hepes], pH 7.2) or sodium-free buffer (137 mM N-methyl-glucamine, 5.4 mM KCl, 2.8 mM CaCl2, 1.2 mM MgCl2, 10 mM Tris/Hepes, pH 7.2). Test compound in 50 μl each of sodium or sodium-free buffer containing 40 μCi/ml methyl-α-D-[U-^14C] glucopyranoside (Amersham Biosciences/GE Healthcare), either with (symbols in parentheses) or without (symbols without parentheses) 25% human serum, was added per well of a 96-well plate and incubated at 37° C. with shaking for either 2 h (SGLT1 assay) or 1.5 h (SGLT2 assay). Cells were washed twice with 150 μl of wash buffer (137 mM N-methylglucamine, 10 mM Tris/Hepes, pH 7.2) and methyl-α-D-[U-^14C]glucopyranoside uptake was quantitated using a TopCount scintillation counter (PerkinElmer, Inc.). Sodium-dependent glucopyranoside uptake was measured by subtracting the values obtained with sodium-free buffer from those obtained using sodium buffer (average of triplicate determinations).

human SGLT1 = target: T2, human SGLT1 (Homo sapiens, UniProt P13866); test: Methyl-α-D-[U-14C]glucopyranoside uptake assay, human SGLT1 expressing cells; type: cell-based; conditions: COS-7 cells expressing human SGLT1, 2 h incubation
T2 construct: Full-length human SGLT1 cDNA on pDream2.1 expression vector was obtained from GenScript Corporation; host or cells: COS-7 cells
T2 sequence (P13866 1-664): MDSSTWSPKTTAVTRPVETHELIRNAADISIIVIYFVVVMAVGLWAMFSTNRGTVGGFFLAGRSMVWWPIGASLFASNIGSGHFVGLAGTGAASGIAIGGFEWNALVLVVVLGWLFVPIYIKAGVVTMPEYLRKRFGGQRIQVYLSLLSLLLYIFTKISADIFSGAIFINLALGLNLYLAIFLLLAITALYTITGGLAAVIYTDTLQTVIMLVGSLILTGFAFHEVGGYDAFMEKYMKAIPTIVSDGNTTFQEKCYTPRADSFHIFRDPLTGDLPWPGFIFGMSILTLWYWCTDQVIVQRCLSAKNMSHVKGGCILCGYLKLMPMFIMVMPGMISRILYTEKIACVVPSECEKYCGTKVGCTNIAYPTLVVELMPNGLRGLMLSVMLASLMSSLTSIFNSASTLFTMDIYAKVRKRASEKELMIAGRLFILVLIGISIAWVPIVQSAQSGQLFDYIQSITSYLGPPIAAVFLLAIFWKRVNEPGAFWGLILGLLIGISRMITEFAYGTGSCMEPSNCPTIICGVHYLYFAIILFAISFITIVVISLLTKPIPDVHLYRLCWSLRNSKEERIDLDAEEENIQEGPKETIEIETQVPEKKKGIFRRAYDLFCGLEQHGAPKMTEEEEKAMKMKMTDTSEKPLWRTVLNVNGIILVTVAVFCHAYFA
Protocol: Full-length human SGLT1 cDNA on pDream2.1 expression vector was obtained from GenScript Corporation and propagated in Escherichia coli strain DH5α using Luria-Bertani (LB) medium containing ampicillin. Plasmid DNA was isolated using the QIAGEN Plasmid Midi Kit (QIAGEN Inc.). […] Transfected cells were stored in DMEM containing 10% dimethyl sulfoxide (DMSO) at −80° C.
as §1

[1] = with 25% human serum (symbols in parentheses)
[2] = without human serum (symbols without parentheses)

Row | SMILES | IC50 (human SGLT2; [1]) [µM] | IC50 (human SGLT1; [1]) [µM] | IC50 (human SGLT2; [2]) [µM] | IC50 (human SGLT1; [2]) [µM]
1 | CCc1ccc(Cc2cc3c(cc2Cl)OC[C@]32O[C@H](CO)[C@@H](O)[C@H](O)[C@H]2O)cc1 [Compound 30, (2′R,3′R,4′S,5′S,6′R)-6-chloro-5-(4-ethylbenzyl)-6′-(hydroxymethyl)-3′,4′,5′,6′-tetrahydro-2H-spiro[benzofuran-3,2′-pyran]-3′,4′,5′-triol] | < 1 | 10 to 100 |  | 
2 | CCc1ccc(Cc2ccc3c(c2)[C@]2(CCO3)O[C@H](CO)[C@@H](O)[C@H](O)[C@H]2O)cc1 [Compound 12, (2′S,3′R,4′S,5′S,6′R)-6-(4-ethylbenzyl)-6′-(hydroxymethyl)-3′,4′,5′,6′-tetrahydrospiro[chroman-4,2′-pyran]-3′,4′,5′-triol] |  |  | < 1 | > 100
3 | CCc1ccc(Cc2cc3c(cc2Cl)OC(C)(CO)C[C@]32O[C@H](CO)[C@@H](O)[C@H](O)[C@H]2O)cc1 (stereo partly drawn) [Compound 52, (2′S,3′R,4′S,5′S,6′R)-7-chloro-6-(4-ethylbenzyl)-2,6′-bis(hydroxymethyl)-2-methyl-3′,4′,5′,6′-tetrahydrospiro[chroman-4,2′-pyran]-3′,4′,5′-triol] | < 1 | > 100 |  | 
4 | CCc1ccc(Cc2cc3c(cc2Cl)OC(C)(C)C[C@]32O[C@H](CO)[C@@H](O)[C@H](O)[C@H]2O)cc1 [Compound 57, (2′S,3′R,4′S,5′S,6′R)-7-chloro-6-(4-ethylbenzyl)-6′-(hydroxymethyl)-2,2-dimethyl-3′,4′,5′,6′-tetrahydrospiro[chroman-4,2′-pyran]-3′,4′,5′-triol] | < 1 | > 100 |  | 
5 | CCc1ccc(Cc2cc3c(cc2Cl)OC(O)C[C@]32O[C@H](CO)[C@@H](O)[C@H](O)[C@H]2O)cc1 (stereo partly drawn) [Compound 44, (2′S,3′R,4′S,5′S,6′R)-7-chloro-6-(4-ethylbenzyl)-6′-(hydroxymethyl)-3′,4′,5′,6′-tetrahydrospiro[chroman-4,2′-pyran]-2,3′,4′,5′-tetraol] |  |  | < 1 | > 100
6 | CCc1ccc(Cc2cc3c(cc2Cl)OC(OC)C[C@]32O[C@H](CO)[C@@H](O)[C@H](O)[C@H]2O)cc1 (stereo partly drawn) [Compound 43, (2′S,3′R,4′S,5′S,6′R)-7-chloro-6-(4-ethylbenzyl)-6′-(hydroxymethyl)-2-methoxy-3′,4′,5′,6′-tetrahydrospiro[chroman-4,2′-pyran]-3′,4′,5′-triol] |  |  | < 1 | > 100
7 | CCc1ccc(Cc2cc3c(cc2Cl)OC(C)C[C@]32O[C@H](CO)[C@@H](O)[C@H](O)[C@H]2O)cc1 (stereo partly drawn) [Compound 47, (2′S,3′R,4′S,5′S,6′R)-7-chloro-6-(4-ethylbenzyl)-6′-(hydroxymethyl)-2-methyl-3′,4′,5′,6′-tetrahydrospiro[chroman-4,2′-pyran]-3′,4′,5′-triol] | < 1 | > 100 |  | 
8 | CCc1ccc(Cc2cc3c(cc2Cl)OCCC[C@]32O[C@H](CO)[C@@H](O)[C@H](O)[C@H]2O)cc1 [Compound 38, (2′S,3′R,4′S,5′S,6′R)-8-chloro-7-(4-ethylbenzyl)-6′-(hydroxymethyl)-3,3′,4,4′,5′,6′-hexahydro-2H-spiro[benzo[b]oxepine-5,2′-pyran]-3′,4′,5′-triol] | < 1 | 10 to 100 |  | 
9 | CCc1ccc(Cc2cc3c(cc2Cl)OCC[C@]32O[C@H](CO)[C@@H](O)[C@H](O)[C@H]2O)cc1 [Compound 20, (2′S,3′R,4′S,5′S,6′R)-7-chloro-6-(4-ethylbenzyl)-6′-(hydroxymethyl)-3′,4′,5′,6′-tetrahydrospiro[chroman-4,2′-pyran]-3′,4′,5′-triol] |  |  | < 1 | 10 to 100
